Data: publication PMC4501119, “Cholestenoic acid, an endogenous cholesterol metabolite, is a potent γ-secretase modulator” (Molecular Neurodegeneration, 2015)
Where “and” joins values, the source holds several entries; their conditions need not be identical. Equal values may be shown once.

Experiments:
[1] = Plasma CA concentration after IP injection (HPLC-MS-MS); assay type: in vivo, mouse (C57BL/6); conditions: mice
Protocol: (§1) 25(R)-CA powder was initially dissolved in DMSO (<4.5 % in the final mixture) and then combined with polyethylene glycol (15)-hydroxystearate (Solutol), ethanol, and water at a ratio of (15:10:75). One molar equivalent of sodium hydroxide was added to the mixture. We performed CA intraperitoneal (IP) injections to wild-type mice (C57BL/6 or CF-1). The mice were injected with 25(R)-CA on the right side of the abdomen. The injections have been performed with various time points (30 min, 1 h, 2 h, and 3 h) and with multiple doses (30 mg per kg (mg/kg), 60 mg/kg, 75 mg/kg and 100 mg/kg). The number of each cohort is 6–8. We used 30 mg/kg of CA for the time-course experiments, and for the dose–response experiments the end-point was set at 30 min. The brains and serum are harvested and frozen for brain Aβ extraction.
The plasma samples were extracted using published solid phase extraction method (72) and analyzed by HPLC-MS-MS. Briefly, 0.1 ml mouse plasma samples after adding 20 μl of D3-CA as internal standard were preconditioned with 1.4 ml of ethanol (99.9 %), and 0.5 ml of water, centrifuged at 4 °C, 4000 rpm for 10 min. This solution was then loaded onto a Sep-Pak tC18 (SPE1) solid phase extraction cartridge which were preconditioned with 70 % ethanol. […]

[2] = design: method as in PMID 10428977; conditions: in humans; cited from earlier work
[3] = tested on: primary mouse motor neuron; design: method as in PMID 25271621; conditions: cited from earlier work
[4] = Tolerability of IP doses in mice; assay type: in vivo, mouse; conditions: up to the highest dose 100 mg/kg
Protocol: as §1

[5] = molecular target: T1, γ-secretase (Homo sapiens, UniProt P49768); assay: In vitro γ-secretase assay with recombinant C100Flag and CHO S-1 membrane, Aβ and AICD spectra by MALDI-TOF; assay type: biochemical; conditions: 20 μM
T1 construct: The membrane derived from the H4 neuroglioma cells overexpressing APP695wt were prepared by carbonate extraction; endogenous in cells; host or cells: H4 neuroglioma cells overexpressing APP695wt (membranes, carbonate extraction)
Protocol: Broken cell assays were performed with slight modifications from the previous studies. The membrane derived from the H4 neuroglioma cells overexpressing APP695wt were prepared by carbonate extraction and incubated at 37 °C for 2 h with CA at various concentrations. Aβ levels were quantified by sandwich ELISAs. For Aβ and AICD spectra, the recombinant C100Flag proteins were overexpressed and purified from Escherichia coli BL21 using a HiTrap Q-column (GE Life Science, Little Chalfont, U.K.). The membrane containing γ-secretase was isolated from the CHO S-1 cell line using sodium carbonate (100 mM, pH 11.0). For the in vitro γ-secretase assay, C100Flag recombinant protein at 25 μM was incubated with the membrane (100 μg/mL) in the presence of CA (20 μM) and DMSO in 150 mM sodium citrate buffer (pH 6.8) containing complete protease inhibitor (Roche, Indianapolis, IN) for 2 h at 37 °C.
Conditioned media from the CHO-2B7 cells and the samples prepared from in vitro γ-secretase studies were used to analyze Aβ and AICD profiles using matrix-assisted laser desorption/ionization time of flight (MALDI-TOF) mass spectrometry analysis. The secreted Aβ peptides were analyzed as previously described with the following modifications. […] Samples were analyzed using a Bruker Microflex LRF-MALDI-TOF mass spectrometer.

For `CC(CCC[C@@H](C)C(=O)O)[C@H]1CCC2C3CC=C4C[C@@H](O)CC[C@]4(C)C3CC[C@@]21C` (stereo partly drawn) [Cmpd 2a, 25(R)-cholestenoic acid], the “plasma CA concentration” value ([1]; 30 mg/kg IP, listed as CA) is listed as 200 ng/mL and ~ 500 nM, the concentration at 30 min ([1]; C57BL/6, mouse, plasma, intraperitoneal, 100 mg/kg IP) is listed as 4000 ng/mL and ~10 µM and the “half-life (T1/2)” value [2] is listed as 1.5 h. For the same compound, the “toxicity to primary mouse motor neuron in cultures” value [3] was “toxic”, the tolerability [4] was “well tolerated” and the “ε-site utilizations (AICD49-99 and AICD50-99)” value ([5]; vs DMSO control) was “did not affect”. For the same compound, the “Aβ spectra (MALDI-TOF)” value ([5]; vs DMSO treated control) was “decrease Aβ42 peak and increase Aβ38 peak”.
